Assay results from patent publication US10920236B2, “Use of micropeptides in order to stimulate mycorrhizal symbiosis” (UNIVERSITE TOULOUSE III—PAUL SABATIER, priority 2014, dated 2021).

Legend:
[1] = system: mycorrhization of Oryza sativa by Rhizophagus irregularis; assay: Mycorrhization of Oryza sativa (rice); format: in vivo; conditions: 0.1 μM, 5 weeks post inoculation; vs solvent control; FIGS. 13, 14, 15, 16 and 19
Method: The effects of the osmiPEP171i on mycorrhization of the rice were analyzed by treating the plants with osmiPEP171i in parallel with the mycorrhization.
The seeds are sterilized for 1 min with 70% ethanol, then for 30 min with sodium hypochlorite solution before rinsing.
Culturing of a previously germinated seed of rice is carried out in a pot containing vermiculite with cotton fibre at the bottom. 500 spores of Rhizophagus irregularis are added per pot. The spores in mixtures in a substrate are arranged in a layer on the vermiculite at approximately two thirds of the height of the pot. The remainder of the pot is then filled with vermiculite and a hole is made for placing a germinated rice seed therein. The substrate is moistened. The pots are then placed in a growing room at 25° C.
Treatments of the Plants with miPEP: • OsmiPEP171i: 0.1 μM (final) • Control: equivalent of 50% ACN solution
The treatments are carried out on Monday and Friday by mixing the solution of miPEP or control in 60 ml of nutrient solution (1/2 Hoagland with 25 μM Pi and Sequestren) and on Wednesday the solution of miPEP or control in 60 ml of water. Each plant is watered with 10 ml per pot. […]

[2] = system: mycorrhization of Solanum lycopersicum by Rhizophagus irregularis; assay: Mycorrhization of Solanum lycopersicum (tomato); format: in vivo; conditions: 0.1 μM slmiPEP171e, watering every two days, 12 weeks post inoculation; vs solvent; FIGS. 8 and 17
Method: The effects of slmiPEP171e on mycorrhization of the tomato were analyzed by treating the plants with slmiPEP171e in parallel with the mycorrhization.
The seeds are sterilized for 2 minutes in sodium hypochlorite solution diluted ¼, then rinsed at least 8 times with sterile water.
The seeds are placed in a Petri dish containing water+1% agar. The dishes are placed at 4° C. overnight, then they are placed at ambient temperature for 4 days in order to germinate the seeds.
The germinated seeds are transferred to an Oil-Dry® substrate containing spores of Rhizophagus irregularis at the concentration of 400 spores/L. After two days of adaptation under mini-greenhouse the seedlings are transferred to a growing room or greenhouse. The plants are watered regularly with a solution of Long Ashton+nitrogen (Lauressergues et al., Plant J. 72(3):512-22, 2012).
The treatment is carried out by watering the plants with 12.5 ml of water+the concentrated solution of miPEP or the equivalent of solvent solution (50% acetonitrile) for the control treatment. The treatments are carried out every two days.
The roots are cleared with 1% KOH 7 minutes at 90° C., then stained 10 minutes in an ink solution (5% Sheaffer ink; 5% acetic acid) at 90° C.

[3] = system: HAM2 (Accession No. MtGI9-TC120850); assay: Expression of the HAM2 gene in M. truncatula roots (qRT-PCR); format: in vivo, Medicago truncatula
Method: (§1) The surface of the seeds of M. truncatula was sterilized and they were placed to germinate on agar plates for 5 days at 4° C. in the dark. The young shoots were then grown on 12 cm square plates filled with Fahraeus medium without nitrogen and containing 7.5 μM phosphate (Lauresergues et al., Plant J., 72(3):512-22, 2012). The lateral roots were counted every day. In pots, the plants were watered every two days with modified Long Ashton medium containing little phosphorus (Balzergue et al., 2011 Journal of experimental botany, 62:1049-1060).
(§2) The peptides were synthesized by Eurogentec or Smartox-Biotech. The miPEP171b was placed in suspension in a water 40%/acetonitrile 50%/acetic acid 10% (v/v/v) solution.
(§3) The total RNA of the roots of M. truncatula was extracted by using the RNeasy Plant Mini Kit extraction kit (Qiagen). […]
(§4) The mean values of the relative expression of the genes or of the production of lateral roots were analyzed by using the Student test or the Kruskal-Wallis test. […]
(§5) The composite plants having roots transformed with Agrobacterium Rhizogenes were obtained by the method described in Boisson-Dernier et al. (Mol Plant-Microbe Interact, 18:1269-1276, 2005). The transformed roots were verified and selected by observations of DsRED with a binocular fluorescence magnifier. […]

[4] = system: HAM1 (Accession No. MtGI9-TC114268); assay: Expression of the HAM1 gene in M. truncatula roots (qRT-PCR); format: in vivo, Medicago truncatula
Method: as §1, §2, §3, §4, §5

[5] = system: colonization of M. truncatula by the fungus Rhizophagus irregularis; assay: Mycorrhization of M. truncatula by Rhizophagus irregularis; format: in vivo, Medicago truncatula
Method: Medicago truncatula plants were treated for 5 weeks, by watering every 2 days, with low concentrations (0.1 μM) of a synthetic peptide the sequence of which is identical to that of miPEP171b, and the percentage colonization of the plant was measured.
Sterile spores of Rhizophagus irregularis (previously called Glomus intraradices) DAOM197198 were purchased from Agronutrition (Carbonne, France).
Seeds of M. truncatula (Gaertn ‘Jemalong’ genotype A17) were sterilized on the surface and placed to germinate on agar plates in the dark for 5 days at 4° C. The plants were then grown on an Oil-Dri US-special substrate (Damolin, Denmark) for 5 to 12 weeks in a growing room and watered every 2 days with modified Long Ashton medium containing a low concentration of phosphate (Balzergue et al., J Exp Bot, 62(3):1049-60, 2011).
For the inoculation of the plants with R. irregularis, 450 spores were used per plant.
After washing in KOH 10% (weight/volume) and rinsing in sterile water, the mycorrhized roots were treated for 30 minutes with wheat germ agglutinin fluorescein conjugate (Invitrogen) which fixes the fungal chitin, then washed 3 times in a PBS buffer. The roots were then observed with an inverted optical microscope or a confocal microscope (Leica, France).
Alternatively, the roots were labelled with black Schaeffer ink according to the protocol described in Vierheilig et al., Appl Environ Microbiol, 64:5004-5007, 1998.
The percentage mycorrhization was measured using grids according to the protocol described in Giovannetti and Mosse, New Phytol, 84:489-500, 1980.
The accurate phenotyping of the mycorrhization was also carried out according to the method of Trouvelot et al., Physiological and Genetical Aspects of Mycorrhizae, pp 217-221, 1986. The frequency of mycorrhization (F) in the root system and the abundance of the arbuscules (A) (as a percentage) were calculated in colonized root sections using the software Mycocalc.
The size of the arbuscules was measured using the software ImageJ. […]

[6] = system: lateral roots of M. truncatula; assay: Number of lateral roots in M. truncatula; format: in vivo, Medicago truncatula
Method: as §1, §2
The mean values of the relative expression of the genes or of the production of lateral roots were analyzed by using the Student test or the Kruskal-Wallis test. The error bars represent the standard error of the mean (SEM). The asterisks indicate a significant difference (p<0.05).
The DNA fragments of interest were amplified with Pfu polymerase (Promega). […]
as §5

miR171b = assay: Accumulation of miR171b in M. truncatula roots (qRT-PCR); format: in vivo, Medicago truncatula
Method: as §1, §2
The RNA was extracted by using the reagent Tri-Reagent (MRC) according to the manufacturer's instructions, with the exception of precipitation of the RNA which was carried out with 3 volumes of ethanol. […]
as §4, §5

[7] = system: mycorrhization of Lotus japonicus by Rhizophagus irregularis; assay: Mycorrhization of Lotus japonicus (birdsfoot trefoil); format: in vivo; conditions: 0.1 μM, 5 weeks post inoculation; vs control; FIGS. 9, 10, 11, 12 and 18
Method: The effects of the LjmiPEP171b on mycorrhization of the birdsfoot trefoil were analyzed by treating the plants with LjmiPEP171b in parallel with the mycorrhization.
The seeds are sterilized in sodium hypochlorite solution for 20 min then rinsed several times in water.
Culturing of the birdsfoot trefoil plants is carried out in a pot containing vermiculite with cotton fibre at the bottom. 5,000 spores of Rhizophagus irregularis are added per pot. The spores in mixtures in a substrate are arranged in a layer on the vermiculite to approximately two thirds of the height of the pot. The remainder of the pot is then filled with vermiculite and 10 seeds of pre-germinated birdsfoot trefoil are placed in the moist substrate. 3 pots are prepared for each treatment. The pots are then places in a growing room at 25° C.
Treatments of the Plants with miPEP: • LjmiPEP171e: 0.1 μM (final) • Control: water.
The treatments are carried out on Monday and Friday by mixing the solution of miPEP or control with the nutrient solution (suitable B&D medium) and on Wednesday the solution of miPEP or control in water. Each pot is watered with 10 ml except on Friday 30 ml (without changing the quantity of miPEP), in order to last over the weekend. […]

[8] = plant in which miPEP171b is overexpressed vs control plant, FIG. 2A
[9] = synthetic peptide applied to roots, medium containing miPEP171b at 0.01 μM, 0.1 μM or 1 μM, vs control plant, FIG. 3A

## MIARYIEREMTSKLGRGRKRAARLVAVFLLG (listed as Oryza sativa) [osmiPEP171i]
[1]
  mycorrhization of rice: promotes

## MKLGNIEGTYFIICLGRYI (listed as Solanum lycopersicum) [slmiPEP171e]
[2]
  mycorrhization of the tomato: promotes

## MLLHRLSKFCKIERDIVYIS (listed as Medicago truncatula) [miPEP171b]
[3]; [8]
  expression of the HAM2 gene (relative expression): reduction
[3]; [9]
  expression of the HAM2 gene (relative expression): reduction
[4]; [8]
  expression of the HAM1 gene (relative expression): reduction
[4]; [9]
  expression of the HAM1 gene (relative expression): reduction
[5]; 0.1 μM miPEP171b, 5 weeks post inoculation, vs control plants, FIG. 7
  mycorrhization rate: greater
[5]; 0.1 μM synthetic peptide, watering every 2 days for 5 weeks, vs solvent control, FIG. 5
  mycorrhization (percentage colonization of the plant): significantly increased
[5]; roots treated with 0.1 μM miPEP171b vs control roots, FIG. 6
  size (surface area) of the arbuscules: larger size
[6]; medium containing miPEP171b at 0.1 μM for 5 days and 1 time per day, vs control plant, FIG. 3B
  average number of lateral roots: reduction
[6]; plant in which miPEP171b is overexpressed vs control plant, FIG. 2B
  average number of lateral roots: reduction
miR171b; [8]
  accumulation of miR171b (relative expression): increase
miR171b; [9]
  accumulation of miR171b (relative expression): increase

## MYHRSKAKLCQTDGDDGGGSDM (listed as Lotus japonicus) [LjmiPEP171b]
[7]
  mycorrhization of birdsfoot trefoil: promotes
